Laboratory results as given in US20230414715A1, “TRAIL COMPOUNDS FOR REDUCING CANCER TREAMENT SIDE EFFECTS” (BROWN UNIVERSITY, priority 2022, published 2023).

System: serum cytokines
Assay: Serum cytokine analysis in the NanoString cohort
Assay type: in vivo, mouse
Method: All mouse serum samples were analyzed by a custom R&D systems Murine Premixed Multi- Analyte Kit (R&D Systems, Inc., Minneapolis, MN). The panel was run on a Luminex 200 Instrument (Luminex Corporation, Austin, TX) according to the manufacturer's instructions. Murine serum levels of Angiopoietin-2, BAFF/BLyS/TNFSF13B, CCL2/JE/MCP-1, CCL3/MIP-1 alpha, CCL4/MIP-1 beta, CCL5/RANTES, CCL7/MCP-3/MARC, CCL11/Eotaxin, CCL12/MCP-5, CCL20/MIP-3 alpha, CCL21/6Ckine, CCL22/MDC, Chitinase 3-like 1, CXCL1/GRO alpha/KC/CINC-1, CXCL10/IP-10/CRG-2, CXCL12/S DF- 1 alpha, Dkk-1, FGF basic/FGF2/bFGF, GDF-15, GM-CSF, Granzyme B, IFN-gamma, IGF-I/IGF-1, IL-1 alpha/IL-1F1, IL-1 beta/IL-1F2, IL-2, IL-3, IL-4, IL-6, IL-7, IL-10, IL-13, IL-16, IL-17/IL-17A, IL-27, IL-33 M-CSF, MMP-3, MMP-8, MMP-12, Prolactin, TWEAK/TNFSF12, VEGF, and VEGFR2/KDR/Flk-1 were measured. Analyte values were reported in picograms per milliliter (pg/mL). […] Latent TGF-β was activated in samples using 1 N HCl and samples were neutralized with 1.2 N NaOH/0.5 M HEPES. Samples were assayed immediately after neutralization.
One hour before radiation mice were grouped into control or given 10 mg/kg of TLY012 via IP injection (n=3/gender/treatment). Mice were treated and weighed twice a week up until 11 days post-radiation when all mice were euthanized.
Rodent sacrifice was performed following anesthetization with 100 mg/kg ketamine and 10 mg/kg xylazine administered intraperitoneally. ˜400-600 μL blood was first collected throughcardiac puncture with a 26G ⅝″ needle through the intercostal space into the left ventricle. […] 1 mL of 2 mg/mL EDTA in PBS was injected through the right ventricle to perfuse the lungs, after which the lungs were excised, washed further in PBS, submerged in RNAlater (Sigma-Aldrich, #R0901, Missouri, USA), and flash frozen in liquid nitrogen.

[1] = NanoString cohort, FIG. 5C, relative to untreated control

TLY012: N-terminal PEGylated recombinant human TRAIL; PEGylated trimeric TRAIL formulation
CCL3/MIP-lalpha serum level [1]: decrease | GDF-15 serum level [1]: decrease | IL-1beta serum level [1]: increase | fold-change in the cytokine levels of inflammatory markers in serum (serum taken 3 days after last administration): no statistically significant fold-change
